# Experimental data published in patent US10570117B2, “Phenylimidazole compound” (Otsuka Pharmaceutical Factory, Inc., priority 2015, dated 2020).
# Read-outs that look alike come from different tables or passages of the source.
# Assays:
# [1] = Solubility in gastric juice or intestinal juice model fluid (precipitation method using DMSO); assay type: physicochemical; conditions: room temperature
# Summary of the method: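 Compound in DMSO added to JP disintegration test fluid 1 (pH 1.2) or fluid 2 (pH 6.8) and shaken 24 h at room temperature. After filtration, dissolved concentration (μg/mL) determined by UV absorbance against compound calibration curves.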
# [2] = test system: lipoprotein lipase (LPL) gene; experiment: LPL mRNA elevating action (RT-PCR quantification of LPL mRNA in C2Cl2 cells); assay type: cell-based, mouse; conditions: Mus musculus, 24 h, compound 10 μM, ratio relative to the amount of LPL mRNA in cells with DMSO only, read-out: Rate of increase in LPL mRNA
# Summary of the method: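 Mouse striated-muscle C2Cl2 cells in DMEM with 10% FBS exposed to compounds at 10 μM for 24 h. LPL mRNA quantified by RT-PCR and real-time PCR (20 cycles), expressed as ratio to DMSO-only cells set at 1.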
# [3] = pH 1.2, simulated gastric fluid, kinetic from dmso stock, 1st fluid for Disintegration Test of Japanese Pharmacopoeia (pH: 1.2), read-out: Solubility (μg/mL) 1st fluid
# [4] = pH 6.8, kinetic from dmso stock, 2nd fluid for Disintegration Test of Japanese Pharmacopoeia (pH: 6.8), read-out: Solubility (μg/mL) 2nd fluid
SMILES,"solubility at 24 h [1, 3] [µg/mL]","solubility at 24 h [1, 4] [µg/mL]",melting point,fold induction at 10 µM [2]
COc1cc(-c2cnc(C3CCC(F)(F)CC3)[nH]2)ccc1O [Example 339],> 62,58.9,131 to 136 °C,1.32
Oc1ccc(-c2cnc(-c3ccc(F)nc3)[nH]2)cc1 [Example 343],50,39.2,> 270 °C,1.42
Fc1ccc(-c2ncc(-c3ccc(OCc4ncc(C(F)(F)F)cc4F)cc3)[nH]2)cn1 [Example 344],85.9,4.6,174 to 177 °C,1.83
Fc1ccc(-c2nc(Br)c(-c3ccc(OCc4ncc(C(F)(F)F)cc4F)cc3)[nH]2)cn1 [Example 345],< 0.4,< 0.4,155 to 158 °C,2.39
COc1cc(OCc2ncc(C(F)(F)F)cc2F)ccc1-c1[nH]c(C2CCC(F)(F)C2)nc1Cl (stereo not shown) [Example 346],99.1,< 0.4,147 to 149 °C,3.18
COc1cc(-c2[nH]c(C3CCC(F)(F)C3)nc2Cl)ccc1OCc1ncc(C(F)(F)F)cc1F (stereo not shown) [Example 347],83.2,< 0.4,142 to 147 °C,3.28
COc1cc(-c2cnc(C3CC(F)(F)C3)[nH]2)ccc1OCc1ncc(C(F)(F)F)cc1F [Example 348],89.6,22.4,105 to 110 °C,1.76
COc1cc(OCc2ncc(C(F)(F)F)cc2F)ccc1-c1cnc(C2CC(F)(F)C2)[nH]1 [Example 349],83.6,10.8,70 to 75 °C,2.2
Cc1cc(O)ccc1-c1cnc(-c2ccc(F)nc2)[nH]1 [Example 350],53.3,51,218 to 220 °C,1.38
Cc1cc(OCc2ncc(C(F)(F)F)cc2F)ccc1-c1cnc(-c2ccc(F)nc2)[nH]1 [Example 351],85.9,7,216 to 222 °C,4.12
Cc1cc(OCc2ncc(C(F)(F)F)cc2F)ccc1-c1[nH]c(-c2ccc(F)nc2)nc1Cl [Example 352],9.8,6,204 to 206 °C,5.48
COc1cc(OCc2ncc(C(F)(F)F)cc2F)ccc1-c1[nH]c(C2CC(F)(F)C2)nc1Cl [Example 353],85.4,0.5,167 to 169 °C,4.08
COc1cc(-c2[nH]c(C3CC(F)(F)C3)nc2Cl)ccc1OCc1ncc(C(F)(F)F)cc1F [Example 354],38.8,1.1,159 to 161 °C,4.44
Fc1ccc(-c2nc(Cl)c(-c3ccc(OCc4ncc(C(F)(F)F)cc4F)cc3)[nH]2)cn1 [Example 355],< 0.3,< 0.3,180 to 183 °C,3.59
CCSc1ccc(-c2ncc(-c3ccc(OCc4ncc(C(F)(F)F)cc4F)cc3OC)[nH]2)cn1 [Example 357],7.8,< 0.3,145 to 149 °C,3.59
CCSc1ccc(-c2nc(Cl)c(-c3ccc(OCc4ccc(C(F)(F)F)nc4)cc3OC)[nH]2)cn1 [Example 358],1.6,< 0.4,160 to 163 °C,4.18
Oc1ccc(-c2cnc(-c3ccc(F)nc3)[nH]2)c(Cl)c1 [Example 359],57.3,52.8,223 to 225 °C,1.75
Fc1ccc(-c2ncc(-c3ccc(OCc4ncc(C(F)(F)F)cc4F)cc3Cl)[nH]2)cn1 [Example 360],90.7,0.6,169 to 171 °C,3.93
Fc1ccc(-c2nc(Cl)c(-c3ccc(OCc4ncc(C(F)(F)F)cc4F)cc3Cl)[nH]2)cn1 [Example 361],3.4,< 0.4,158 to 160 °C,5.51
CCc1cc(OCc2ncc(C(F)(F)F)cc2F)ccc1-c1cnc(-c2ccc(F)nc2)[nH]1 [Example 363],104,6.9,115 to 117 °C,2.78

# Now from value to molecule, other results behind:
"solubility at 24 h [1, 3] [µg/mL]","solubility at 24 h [1, 4] [µg/mL]",melting point,SMILES,fold induction at 10 µM [2]
< 0.4,< 0.4,187 to 188 °C,CCc1cc(OCc2ncc(C(F)(F)F)cc2F)ccc1-c1[nH]c(-c2ccc(F)nc2)nc1Cl [Example 364],2.65
77.9,31.2,97 to 102 °C,COc1cc(OCc2ncc(C(F)(F)F)cc2F)ccc1-c1cnc(C2CCCC2)[nH]1 [Example 365],3.02
82.1,< 0.3,139 to 142 °C,COc1cc(OCc2ncc(C(F)(F)F)cc2F)ccc1-c1[nH]c(C2CCCC2)nc1Cl [Example 367],2.54
82.9,0.5,158 to 163 °C,COc1cc(-c2[nH]c(C3CCCC3)nc2Cl)ccc1OCc1ncc(C(F)(F)F)cc1F [Example 368],2.62
35.9,< 0.3,167 to 172 °C,Fc1ccc(-c2ncc(-c3ccc(OCc4ncc(C(F)(F)F)cc4F)cc3F)[nH]2)cn1 [Example 369],1.26
1.6,1.8,144 to 146 °C,Fc1ccc(-c2nc(Cl)c(-c3ccc(OCc4ncc(C(F)(F)F)cc4F)cc3F)[nH]2)cn1 [Example 370],3.31
88.3,< 0.3,155 to 157 °C,COc1cc(OCc2ncc(C(F)(F)F)cc2F)ccc1-c1[nH]c(C2CCC2)nc1Cl [Example 373],3.03
88.3,1.2,159 to 162 °C,COc1cc(-c2[nH]c(C3CCC3)nc2Cl)ccc1OCc1ncc(C(F)(F)F)cc1F [Example 374],2.6
84.6,0.7,151 to 154 °C,COc1cc(OCc2ncc(C(F)(F)F)cc2F)ccc1-c1[nH]c(C2CC2)nc1Cl [Example 377],1.88
81.6,7.5,161 to 165 °C (dec.),COc1cc(-c2[nH]c(C3CC3)nc2Cl)ccc1OCc1ncc(C(F)(F)F)cc1F [Example 378],1.24
79.9,72.9,141 to 144 °C,COc1cc(OCc2ncc(C(F)(F)F)cc2F)ccc1-c1cnc(C(C)(C)C)[nH]1 [Example 379],2.87
81.2,63.7,178 to 182 °C,COc1cc(-c2cnc(C(C)(C)C)[nH]2)ccc1OCc1ncc(C(F)(F)F)cc1F [Example 380],1.18
78.2,66.9,84 to 89 °C,COc1cc(OCc2ncc(C(F)(F)F)cc2F)ccc1-c1cnc(C(C)C)[nH]1 [Example 381],2.19
85.1,< 0.3,170 to 172 °C,COc1cc(OCc2ncc(C(F)(F)F)cc2F)ccc1-c1[nH]c(C(C)(C)C)nc1Cl [Example 383],2.16
86.4,1.2,179 to 184 °C,COc1cc(-c2[nH]c(C(C)(C)C)nc2Cl)ccc1OCc1ncc(C(F)(F)F)cc1F [Example 384],1.84
84.7,2.1,131 to 135 °C,COc1cc(OCc2ncc(C(F)(F)F)cc2F)ccc1-c1[nH]c(C(C)C)nc1Cl [Example 385],3.18
82.7,0.9,188 to 191 °C (dec.),COc1cc(-c2[nH]c(C(C)C)nc2Cl)ccc1OCc1ncc(C(F)(F)F)cc1F [Example 386],2.77
4.8,0.8,191 to 193 °C,COc1cc(OCc2ncc(C(F)(F)F)cc2F)ccc1-c1cnc(-c2ccc(Br)nc2)[nH]1 [Example 387],2.41
0.8,< 0.4,222 to 224 °C,COc1cc(OCc2ccc(C(F)(F)F)nc2)ccc1-c1cnc(-c2ccc(Br)nc2)[nH]1 [Example 388],2.13
49.5,21.6,76 to 91 °C,COc1cc(OCc2ncc(C(F)(F)F)cc2F)ccc1-c1cnc(CCC(F)(F)F)[nH]1 [Example 390],2.09
